Data taken from US20150352108A1, “AMINO-PYRIMIDINE COMPOUNDS AS INHIBITORS OF TBK1 AND/OR IKK EPSILON” (Alzheimer's Institute of America, priority 2009, published 2015).

Experiments:
IKKε = biological target: T1, IKKε (Homo sapiens, UniProt Q14164); experiment: In-vitro IKKε kinase assay ([γ33]ATP filter-plate); format: biochemical; conditions: text bins; read-out: IC50 for inhibition of the kinase activity of IKKε
T1 construct: His-tag; made in house; host or cells: Sf9 insect cells
T1 sequence (Q14164 1-716): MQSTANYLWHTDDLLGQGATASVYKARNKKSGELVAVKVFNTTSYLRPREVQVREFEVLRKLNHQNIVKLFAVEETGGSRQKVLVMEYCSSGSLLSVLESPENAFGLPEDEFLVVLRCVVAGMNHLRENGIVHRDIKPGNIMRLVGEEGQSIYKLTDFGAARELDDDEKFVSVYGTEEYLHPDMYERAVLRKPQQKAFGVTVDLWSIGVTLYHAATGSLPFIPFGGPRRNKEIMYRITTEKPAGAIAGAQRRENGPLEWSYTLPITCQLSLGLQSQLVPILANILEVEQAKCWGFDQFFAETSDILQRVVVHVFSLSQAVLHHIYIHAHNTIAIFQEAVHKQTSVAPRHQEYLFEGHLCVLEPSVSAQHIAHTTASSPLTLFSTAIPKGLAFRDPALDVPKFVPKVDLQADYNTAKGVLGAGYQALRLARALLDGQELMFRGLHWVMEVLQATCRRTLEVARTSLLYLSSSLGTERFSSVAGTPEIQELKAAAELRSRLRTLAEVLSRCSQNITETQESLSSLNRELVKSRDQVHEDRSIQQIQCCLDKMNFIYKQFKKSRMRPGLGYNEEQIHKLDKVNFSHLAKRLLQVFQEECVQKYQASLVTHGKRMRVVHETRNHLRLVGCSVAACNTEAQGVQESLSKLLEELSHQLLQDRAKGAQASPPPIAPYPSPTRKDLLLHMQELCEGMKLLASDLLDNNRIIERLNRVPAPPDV
Procedure, shortened: (§1)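 Phosphorylation of casein or myelin basic protein was counted by P-81 filter capture after 30-45 min reactions stopped with phosphoric acid, with counts normalized to DMSO after background subtraction. ATP was twice Km: 60 μM for TBK1 and 32 μM for IKKε, plus [γ33]ATP. Sf9-expressed His-tag enzymes were used at normal/sensitized levels of 0.1/0.02 μg/ml (TBK1) and 0.1/0.015 μg/ml (IKKε).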

TBK1 = biological target: T2, TBK1 (Homo sapiens, UniProt Q9UHD2); experiment: In-vitro TBK1 kinase assay ([γ33]ATP filter-plate); format: biochemical; conditions: text bins; read-out: IC50 for inhibition of the kinase activity of TBK1
T2 construct: His-tag; made in house; host or cells: Sf9 insect cells
T2 sequence (Q9UHD2 1-729): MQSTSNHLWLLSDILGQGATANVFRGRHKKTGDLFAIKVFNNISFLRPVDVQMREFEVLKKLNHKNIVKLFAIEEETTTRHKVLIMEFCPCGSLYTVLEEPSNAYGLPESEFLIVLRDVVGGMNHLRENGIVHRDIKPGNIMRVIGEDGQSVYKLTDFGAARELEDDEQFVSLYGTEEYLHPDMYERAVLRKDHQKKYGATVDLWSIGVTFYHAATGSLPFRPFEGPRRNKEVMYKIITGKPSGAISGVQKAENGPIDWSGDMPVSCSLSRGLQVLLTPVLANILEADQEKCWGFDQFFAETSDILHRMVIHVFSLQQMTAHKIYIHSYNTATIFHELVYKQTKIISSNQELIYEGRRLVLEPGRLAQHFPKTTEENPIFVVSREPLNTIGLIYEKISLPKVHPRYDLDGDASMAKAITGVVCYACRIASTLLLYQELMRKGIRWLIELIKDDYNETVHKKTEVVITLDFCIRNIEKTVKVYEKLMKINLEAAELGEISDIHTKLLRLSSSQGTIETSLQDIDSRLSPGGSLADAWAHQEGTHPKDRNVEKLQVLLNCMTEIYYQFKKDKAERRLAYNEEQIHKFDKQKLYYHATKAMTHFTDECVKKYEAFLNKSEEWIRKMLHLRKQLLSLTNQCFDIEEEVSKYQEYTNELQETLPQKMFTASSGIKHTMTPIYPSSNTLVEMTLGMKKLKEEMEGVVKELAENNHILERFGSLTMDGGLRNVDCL
Procedure, shortened: as §1

Row | SMILES | IC50 (IKKε) | IC50 (TBK1)
1 | COc1ccc(-c2ccnc(Nc3ccc(OC)c(OCCN4CCOCC4)c3)n2)cc1C#N [compound 368, 2-Methoxy-5-[2-({4-methoxy-3-[2-(morpholin-4-yl)ethoxy]phenyl}amino)pyrimidin-4-yl]benzonitrile] | 0.005 to 0.05 µM | 0.01 to 0.1 µM
2 | CN(C)c1ccc(Nc2nccc(-c3cccc(C#N)c3)n2)cc1 [Example 286, 3-(2-{[4-(Dimethylamino)phenyl]amino}pyrimidin-4-yl)benzonitrile] | 0.05 to 0.5 µM | 0.1 to 0.5 µM
3 | N#Cc1cc(-c2ccnc(Nc3ccc(N4CCOCC4)cc3)n2)ccc1OCC1CCN(C(=O)CO)C1 (centres unmarked) [compound 461, 2-{[1-(hydroxyacetyl)pyrrolidin-3-yl]methoxy}-5-(2-{[4-(morpholin-4-yl)phenyl]amino}pyrimidin-4-yl)benzonitrile] | 0.005 to 0.05 µM | < 0.01 µM
4 | Cc1ccc(Nc2nccc(-c3ccc(NC(=O)C(C)C)c(C#N)c3)n2)cc1OCCCN1CCOCC1 [compound 410] | 0.005 to 0.05 µM | 0.01 to 0.1 µM
5 | N#Cc1cc(-c2ccnc(Nc3ccc(N4CCOCC4)cc3)n2)ccc1NC(=O)C1CCCCC1 [Example 54, N-[2-cyano-4-(2-{[4-(morpholin-4-yl)phenyl]amino}pyrimidin-4-yl)phenyl] cyclohexane-carboxamide] | 0.005 to 0.05 µM | 0.01 to 0.1 µM
6 | CN(C)C(=O)CCNc1ccc(Nc2nccc(-c3ccc(OC4CCOCC4)c(C#N)c3)n2)cc1 [Example 209, N~3~-[4-({4-[3-cyano-4-(tetrahydro-2H-pyran-4-yloxy)phenyl]pyrimidin-2-yl}amino)phenyl]-N,N-dimethyl-beta-alaninamide] | 0.005 to 0.05 µM | < 0.01 µM

Second part, the molecule after the results:

Row | IC50 (IKKε) | IC50 (TBK1) | SMILES
7 | 0.005 to 0.05 µM | < 0.01 µM | COc1cc(Nc2nc(-c3ccc(OC4CCOCC4)c(C#N)c3)c3nc[nH]c3n2)ccc1N1CCOCC1 [compound 633, 5-(2-{[3-Methoxy-4-(morpholin-4-yl)phenyl]amino}-3H-purin-6-yl)-2-(tetrahydro-2H-pyran-4-yloxy)benzonitrile]
8 | 0.005 to 0.05 µM | 0.01 to 0.1 µM | CS(=O)(=O)NCCOc1ccc(-c2ccnc(Nc3ccc(N4CCOCC4)cc3)n2)cc1C#N [Example 177, N-{2-[2-cyano-4-(2-{[4-(morpholin-4-yl)phenyl]amino}pyrimidin-4-yl)phenoxy]ethyl} methanesulfonamide]
9 | 0.005 to 0.05 µM | < 0.01 µM | N#Cc1cc(-c2ccnc(Nc3ccc(N4CCOCC4)cc3)n2)ccc1OCCNC=O [Example 230, N-{2-[2-cyano-4-(2-{[4-(morpholin-4-yl)phenyl]amino}pyrimidin-4-yl)phenoxy]ethyl} formamide]
10 | < 0.005 µM | < 0.01 µM | N#Cc1cc(-c2ccnc(Nc3ccc(N4CCOCC4)cc3)n2)ccc1OCC1CCOCC1 [Example 158, 5-(2-{[4-(morpholin-4-yl)phenyl]amino}pyrimidin-4-yl)-2-(tetrahydro-2H-pyran-4-ylmethoxy) benzonitrile]
11 | < 0.005 µM | < 0.01 µM | CN(C)c1cccc(Nc2nccc(-c3ccc(OC4CCOCC4)c(C#N)c3)n2)c1 [compound 539, 5-(2-{[3-(Dimethylamino)phenyl]amino}pyrimidin-4-yl)-2-(tetrahydro-2H-pyran-4-yloxy)benzonitrile]
12 | < 0.005 µM | < 0.01 µM | CNS(=O)(=O)Cc1ccc(Nc2nccc(-c3ccc(OCC4CC4)c(C#N)c3)n2)cc1 [compound 644, 1-[4-({4-[3-Cyano-4-(cyclopropylmethoxy)phenyl]pyrimidin-2-yl}amino)phenyl]-N-methylmethane-sulfonamide]
13 | < 0.005 µM | < 0.01 µM | COc1cc(Nc2nccc(-c3ccc(OC4CCN(C(=O)[C@H](C)O)CC4)c(C#N)c3)n2)ccc1C(=O)NCCN(C)C [Example 287, 4-({4-[3-cyano-4-({1-[(2S)-2-hydroxypropanoyl]piperidin-4-yl}oxy)phenyl]pyrimidin-2-yl}amino)-N-[2-(dimethylamino)ethyl]-2-methoxybenzamide]
